Reference: PubChem BioAssay AID2005 (Sanford-Burnham Center for Chemical Genomics, 2009)
Activity calls are given as the source filed them.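 The calls were made as follows: active = plate Z score at or below -3, or inhibition of at least 30% at 20 µM; inactive = the rest.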

Test: compounds lowering EGFP fluorescence in F442A cells, dose response, counter-screen for p/CIP destabilizer project (AID 2005);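 also: cells express EGFP alone from a CMV promoter as a counter screen for p/CIP-EGFP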
Settings: F442A EGFP cells, EGFP fluorescence, 16 h, stronger effect = higher value

Nc1ccc2nc(-c3ccc(-c4nc5ccc(N)cc5[nH]4)cc3)[nH]c2c1
inhibition (EGFP decrease, at 10 µM): 15.4% | inhibition (at 20 µM): 25% (inactive)

CCN1CCN(Cc2ccc(NC(=O)c3cc(NC(=O)C4=NN(c5ccccc5)C(=O)C4)cc(OC)c3)cc2C(F)(F)F)CC1
inhibition (EGFP decrease, at 10 µM): 37.6% | inhibition (at 20 µM): 24.2% (inactive)

COc1cccc(-c2nc(CS(=O)CC(=O)NCc3ccccc3)c(C)o2)c1 (stereo not drawn)
inhibition (EGFP decrease, at 10 µM): 19.6% | inhibition (at 20 µM): -13.3% (inactive)

Cc1cc(C)n(/N=C/c2ccccc2O)c(=O)c1
inhibition (EGFP decrease, at 10 µM): 20.8% | inhibition (at 20 µM): 9.9% (inactive)

O=C(N/N=C\c1ccc2c(c1)OCO2)c1cncc(Br)c1
inhibition (EGFP decrease, at 10 µM): 6.5% | inhibition (at 20 µM): 7.3% (inactive)

CCN1C(=O)/C(=C2\C=Cc3cc(C)ccc3N2CC)OC1=S
inhibition (EGFP decrease, at 10 µM): -35.7% | inhibition (at 20 µM): -30.8% (inactive)

CC(C)c1csc(CN2CCCC(CNC(=O)c3cccc4ccccc34)C2)n1 (stereo not drawn)
inhibition (EGFP decrease, at 10 µM): 15% | inhibition (at 20 µM): 4.5% (inactive)

Cc1nc2c(=O)n(C)c(=O)nc-2n(C)n1
inhibition (EGFP decrease, at 10 µM): 54.2% | inhibition (at 20 µM): 34.4%

Cc1cc(NC(=O)CSc2ccc3nnc(-c4cccs4)n3n2)no1
inhibition (EGFP decrease, at 10 µM): 10.8% | inhibition (at 20 µM): 15.9% (inactive)

CCOc1ccc(-c2nc(-c3ccccc3)no2)cc1OCC
inhibition (EGFP decrease, at 10 µM): -19.3% | inhibition (at 20 µM): 1.4% (inactive)

COc1cc2c(cc1OC)/C(=C/C#N)NC(C)(C)C2
inhibition (EGFP decrease, at 10 µM): 6.8% | inhibition (at 20 µM): 8% (inactive)

Cc1nn(CC(=O)NCCN2CCCCC2C)c(=O)c2cc(-c3ccccc3)nn12 (stereo not drawn)
inhibition (EGFP decrease, at 10 µM): 17.6% | inhibition (at 20 µM): 1.6% (inactive)

COC(=O)c1cccc(C23CC4(C2)[C@H](CN(C)[C@@H]4c2ccccc2)C3c2ccc(C(F)(F)F)cc2)c1 (stereo partly drawn)
inhibition (EGFP decrease, at 10 µM): 8% | inhibition (at 20 µM): 8.1% (inactive)

O=C(O)C(O)Cc1c[nH]c2ccccc12 (stereo not drawn)
inhibition (EGFP decrease, at 10 µM): 23.8% | inhibition (at 20 µM): 19.1% (inactive)

O=C(Oc1ccccc1-c1nnco1)c1ccccc1
inhibition (EGFP decrease, at 10 µM): 31% | inhibition (at 20 µM): -29.2% (inactive)

CC1CC(C)CN(c2ccc(NS(=O)(=O)c3ccccc3)cc2C(=O)O)C1 (stereo not drawn)
inhibition (EGFP decrease, at 10 µM): 9.8% | inhibition (at 20 µM): 2.9% (inactive)

COc1ccc(-n2ncc3c(SCC(=O)N4CCN(c5ccccc5OC)CC4)ncnc32)cc1
inhibition (EGFP decrease, at 10 µM): 17.1% | inhibition (at 20 µM): 9.4% (inactive)

O=c1nc2n(c3ccc([N+](=O)[O-])cc13)CCCCC2
inhibition (EGFP decrease, at 10 µM): 39% | inhibition (at 20 µM): 29.5% (inactive)

O=c1ccn(Cc2ccccc2Cl)cc1
inhibition (EGFP decrease, at 10 µM): 33.3% | inhibition (at 20 µM): 14.1% (inactive)

CC(CCc1ccccc1)NC(=O)CNC(=O)COc1ccccc1 (stereo not drawn)
inhibition (EGFP decrease, at 10 µM): -4.8% | inhibition (at 20 µM): 28.2% (inactive)

CC1CCCCC1NC(=O)c1cn(C)c2ccc(S(=O)(=O)N3CCCC3)cc2c1=O (stereo not drawn)
inhibition (EGFP decrease, at 10 µM): 12.3% | inhibition (at 20 µM): 6.4% (inactive)

NNC(=O)c1ccc(-c2cccc([N+](=O)[O-])c2)o1
inhibition (EGFP decrease, at 10 µM): 4.6% | inhibition (at 20 µM): 9.1% (inactive)

Cc1ccccc1-n1ncc2c1CC(C)(C)CC2NC(=O)CCN1CCCCC1=O (stereo not drawn)
inhibition (EGFP decrease, at 10 µM): -9.2% | inhibition (at 20 µM): 12.3% (inactive)

Cc1ccc(-c2nc(-c3cccnc3)no2)c(C)c1
inhibition (EGFP decrease, at 10 µM): 18.1% | inhibition (at 20 µM): 31.1%

O=C(Nc1cccnc1)c1ccc(Cl)c(S(=O)(=O)N2CCCCCC2)c1
inhibition (EGFP decrease, at 10 µM): 28.5% | inhibition (at 20 µM): -6.9% (inactive)

COC(=O)c1cc(NC(=O)CSc2nc(C)cc(=O)[nH]2)cc(C(=O)OC)c1
inhibition (EGFP decrease, at 10 µM): 9.8% | inhibition (at 20 µM): 23.4% (inactive)

CSCCC(NC(=O)C1CCC(C)CC1)C(=O)Nc1ccc(NC(C)=O)cc1 (stereo not drawn)
inhibition (EGFP decrease, at 10 µM): 24.8% | inhibition (at 20 µM): 18.5% (inactive)

Cc1ccc(S(=O)(=O)CCC(=O)OCC(=O)c2c[nH]c3ccccc23)cc1
inhibition (EGFP decrease, at 10 µM): 10.1% | inhibition (at 20 µM): 19.8% (inactive)

O=c1c2ccccc2[nH]c2ccccc12
inhibition (EGFP decrease, at 10 µM): 13.8% | inhibition (at 20 µM): 18.3% (inactive)
